Test results reported in a melting point compilation (Tetko et al.).

melting point [°C] | Compound
203 | NC(=O)CN1Cc2ccccc2OC1=O
238 | O=C(O)Cc1ccc2c(c1)NC(=O)C2
119 to 121 | COC(=O)c1ccc(N2CCCC2)nc1
122 | CC(=O)C1=Cc2ccccc2C1
123 | COc1ccccc1-c1nnc2n1NCS2
180 | Cn1c(/C(C#N)=N/Nc2c(Br)cc(Br)cc2Br)nc2ccccc21
134 to 138 | Cc1nc2scc(-c3ccccc3)c2c(=O)n1NC(=O)c1cccc(C(F)(F)F)c1
70 to 71 | COC(=O)c1cscc1OC
43 to 44 | Cn1ccc2cc(Br)ccc21
303 to 308 | Cc1cc(Cl)cc2c(O)c(C(=O)O)cnc12
132 | Cc1ccc(O)c(-n2nc3ccccc3n2)c1
64 | COC(=O)c1ccc(O)c(OC)c1
226 | COc1cc(C2Nn3c(nnc3-c3ccc([N+](=O)[O-])cc3)S2)ccc1O (stereo not given)
233 | COc1ccc(Cc2cnc(N)nc2N)cc1OC
56 to 59 | Cc1cc(CO)c(-c2ccccc2)o1
159 to 160 | COc1ccc(Cc2c(N)nn3c(C)cc(C)nc23)cc1
210 to 211 | Nc1ccc(Cl)nn1
134 to 139 | CN(C)c1ccc([N+](=O)[O-])c(N)c1
249 to 252 | c1cnc2c(ccc3nccnc32)n1
124 | COC(=O)c1cc2cc3c(cc2cc1C(=O)OC)CC3
259 to 261 | COc1ccc(C[C@H](N)C(=O)O)cc1
56.5 | Cc1cc2ccccc2n1C
160 | COc1ccc2c(c1OC)CN(C)CCc1cc3c(cc1C(=O)C2)OCO3
42 | ClCc1nc(-c2ccccc2)no1

melting point [°C] | Compound
73 to 74 | COC(=O)c1scc(Br)c1OC
255 to 257 | COC(=O)c1ccccc1-n1c(=S)[nH]c2ccccc2c1=O
214 | O=C1c2cc3ccccc3cc2-c2ccc3ccccc3c21
84 to 86 | N#Cc1ccc2occc2c1
80 | COc1cc(N)ccc1Cl
85 | Cc1nnc(-c2ccccn2)nc1C
80 to 82 | Cn1nc(C(=O)Cl)cc1-c1ccccc1
149 to 154 | O=C1c2ccccc2C(=O)N1CBr
46 | COc1cc2c(cc1OC)OC(C)(C)C=C2
130 | Cc1cccc(C(=O)O)n1
91 | CN(N)c1ccc(Cl)cc1[N+](=O)[O-]
143 | CCCCOC(=O)C1=C(C)NC(=O)NC1c1ccc2c(c1)OCO2 (stereo not given)
117 | CCCCc1ccc(NC(=O)c2ccc(CC)cc2)cc1
162 | CC(C)NCC(O)COc1cccc2ccccc12 (stereo not given)
-41 | CC(C)(C)c1ccncc1
87 | Cc1cc2ccccc2c(-c2ccccc2)n1
52 to 55 | CN(N)c1ccc(C(F)(F)F)cn1
192 to 194 | Cc1nn2c(-c3ccccc3)nnc2s1
98 | COc1ccc(C(C)=O)cc1[N+](=O)[O-]
107 | Brc1cnc(N2CCCCC2)nc1OCc1ccccc1
132 to 135 | Nc1cccc(Oc2ccc(S(=O)(=O)c3ccc(Oc4cccc(N)c4)cc3)cc2)c1
122 to 124 | NC(=S)COc1cccc(Cl)c1
107 to 113 | c1cc(CCc2ccncc2)ccn1

Second part, the molecule before the results:

Compound | melting point [°C]
O=C(O)c1ccc(O)c([N+](=O)[O-])c1 | 230
C1=C(c2ccccc2)CCCC1 | -11
CCCCCCCc1ccc(O)cc1 | 26.5
CC1(C)C=C(C(=O)O)C(C)(C)N1O | 202
CCOC(=O)c1cc(C)n(CO)n1 | 71
O=C(Nc1nccs1)C(C(F)(F)F)C(F)(F)F | 148
C=C(C(=O)O)c1ccccc1 | 106
Cc1ccc(S(=O)(=O)OC2CCC3(C)C(CCC4C5CCCC5(C)CCC43)C2)cc1 (stereo not given) | 129 to 131
O=C1CC(c2ccccc2)Cc2ccncc21 (stereo not given) | 83
CC1(C)OC2CC3C4CC(F)C5=CC(=O)C=CC5(C)C4C(O)CC3(C)C2(C(=O)CO)O1 (stereo not given) | 245
Oc1c(O)c(Br)c(Br)c(Br)c1Br | 191
OC(c1ccccc1)C(O)(c1ccccc1)c1ccccc1 (stereo not given) | 163
O=C1/C(=N\Nc2cccc([N+](=O)[O-])c2)C(C(F)(F)F)=NN1c1ccccc1 | 150
CC(=O)N(C)c1cccc(N(C)C(C)=O)c1 | 152
CCCCCCCCCCCCCCCCCCCCCCCCO | 75 to 77
O=C1CCC(c2ccc(NC(=O)CCl)cc2)=NN1 | 220 to 223
N#Cc1cc(/N=C/C=C/c2ccccc2)n(-c2c(Cl)cc(C(F)(F)F)cc2Cl)n1 | 160
CCSc1ncccc1C(=O)NC(CCSC)C(=O)O (stereo not given) | 121 to 122
O=C(OC1C(=O)OC(=O)C1OC(=O)c1ccccc1)c1ccccc1 (stereo not given) | 174
NC(=O)c1cc(Br)cc(Br)c1 | 182
O=C(c1ccccc1)C1SC(=S)N(c2ccccc2)C1=O (stereo not given) | 159

Compound | melting point [°C]
CC1(c2ccccc2)OC(C(=O)O)=CC1=O (stereo not given) | 176
O=C1NC(=S)NC(=O)C1=NNc1cccc([N+](=O)[O-])c1 | 330
Oc1ccc(Cl)c(Cl)c1Cl | 83.5
O=C(Cc1ccccc1)OC1Cc2ccccc21 (stereo not given) | 42
Cc1ccc(N=C=Nc2ccc(C)cc2)cc1 | 58.5
O=S(=O)(Cl)c1ccccc1Br | 50 to 51
CC1CCC(C(C)C)C(OC(=O)CC#N)C1 (stereo not given) | 84
OCC1C2C=CC(C2)C1CO (stereo not given) | 85 to 85.5
NC(=O)c1c(F)c(F)c(N)c(F)c1F | 183 to 187
O=C(Cl)C12CC3CC(CC(C3)C1)C2 | 51
c1ccc2nc(-c3cc(-c4cnc5ccccc5n4)cc(-c4cnc5ccccc5n4)c3)cnc2c1 | 302
O=C(O)C=Cc1ccc(F)cc1C(F)(F)F | 182
Clc1cccc2c(-c3ccccc3)c(-c3ccccc3)[nH]c12 | 97 to 98
Cc1cc(O)cc(O)c1C | 136
Cl/C(=C\c1ccccc1)c1ccc2c3c(cccc13)CC2 | 77
CC1C=CCC1 (stereo not given) | -127
O=C(Nc1nc(-c2ccc(Br)cc2)cs1)c1ccccc1 | 115
CC=C(C)C(=O)OC1CCN2CC=C(COC(=O)C(O)(C(C)OC)C(C)(C)O)C12 (stereo not given) | 97
CCC#CC(=O)O | 50
O=Cc1ccc(-c2ccc(F)c(C(F)(F)F)c2)o1 | 89 to 91
O=C(CNc1cccc([N+](=O)[O-])c1)c1ccccc1 | 169

Compound | melting point [°C]
FC(F)=C(F)C(F)(F)F | -156
CC(=O)c1cccc(S(=O)(=O)Cl)c1 | 43
N#Cc1c(C(F)(F)F)cc(Cl)nc1Cl | 38 to 40
O=C(CCl)Nc1ccc(Cl)cc1Cl | 105 to 108
CC(=O)C1CCC2C3CCC4CC(O)CCC4(C)C3CCC12C (stereo not given) | 194
CC(CC1CCCCC1)C1CCCCC1 (stereo not given) | -22
CC1NC(=O)C(C)NC1=O (stereo not given) | 274 to 278
FC(F)(Br)CBr | -61
O=C(c1ccccc1)c1ccsc1C(=O)O | 152
CC=NNc1ccc([N+](=O)[O-])cc1[N+](=O)[O-] | 166
C=C(C)CCCCCCCCCCC | -22
Cc1ccc(Sc2ccc(C=O)cc2[N+](=O)[O-])cc1 | 138 to 141
Cc1ccc(S(=O)(=O)N2C(C)C2c2ccccc2)cc1 (stereo not given) | 188 to 190
Clc1ccc(Br)s1 | -20
CCCCCCCCCCCCCCCCOCC(O)CO (stereo not given) | 64
O=S(=O)(O)c1ccc(-c2ccc(S(=O)(=O)O)cc2)cc1 | 72.5
Brc1n[nH]c(Br)c1Br | 190 to 192
O=C(O)c1c(F)c(Cl)c(F)c(Cl)c1F | 142 to 143
O=Cc1cccc(-c2ccsc2)c1 | 48 to 49
NC(=O)NC(CC(=O)O)C(=O)O (racemic) | 174 to 175
O=C1C2=C(CCCC2)C(=O)N1CO | 80 to 84

Compound | melting point [°C]
O=C(O)c1cc(C(F)(F)F)ccc1N1CCOCC1 | 175 to 177
O=c1c2ccccc2[nH]c(=S)n1-c1ccccc1 | 309 to 311
CC1CCCC=CC2CC(O)CC2C(O)C=CC(=O)O1 (stereo not given) | 201 to 205
O=[N+]([O-])c1ncccc1O | 71
NNC(=O)N1N=C(c2ccccc2)CCC1=O | 166 to 168
O=Cc1cccc(C(F)(F)F)c1O | 57
O=C(CBr)c1ccc2c(c1)OCCO2 | 115 to 116
CC(C)=NOCCOC(=O)C(C)Oc1ccc(Oc2cnc3cc(Cl)ccc3n2)cc1 (stereo not given) | 66.3
CC1(C)SC2C(NC(=O)C3(N)CCCCC3)C(=O)N2C1C(=O)O (stereo not given) | 182
CCCCCCCCCCCCCCCCCCCCCC1CCCC1 | 42
CCCCCCCCCCCCCCCC(=O)Oc1c[nH]c2ccc(Br)c(Cl)c12 | 53 to 57
Cn1c(=O)c(C2=NNC(=O)C2=NNc2ccccc2)c(O)c2ccccc21 | 213
COS(=O)(=O)c1ccc(C)cc1 | 28.5
N#CC(=Cc1ccccc1)C(=O)O | 175
FC(Cl)(Cl)C(Cl)Cl | -82.6
CC1CCC(C(C)C)C(OC(=O)C(C(=O)c2ccccc2)C(=O)c2ccccc2)C1 (stereo not given) | 138
N#C/C(=N\Nc1cccc(C(F)(F)F)c1)c1nc2ccccc2[nH]1 | 270
ClC1CCCCC1 | -44
O=c1[nH]c2ncccc2o1 | 214 to 215
C[C@@]12CCC[C@@]1(O)[C@@H]1CC=C3CC(O)CC[C@]3(C)[C@H]1CC2 (stereo not given in full) | 201 to 203
